Source: paper PMC4431184, “The Use of the LanthaScreen TR-FRET CAR Coactivator Assay in the Characterization of Constitutive Androstane Receptor (CAR) Inverse Agonists” (Sensors (Basel, Switzerland), 2015)
Each block holds one molecule with its values, some of them ahead of it.

Experiments:
[1] = molecular target: T1, human CAR ligand-binding domain (LBD) (Homo sapiens, UniProt Q14994); assay: LanthaScreen TR-FRET CAR Coactivator Assay; type: biochemical; conditions: for IC50: IC50 (95% Conf. Interv.), TR-FRET CAR Assay; for fold activation compared to vehicle control: CITCO 10 μM
T1 sequence (Q14994 109-352 limits assumed): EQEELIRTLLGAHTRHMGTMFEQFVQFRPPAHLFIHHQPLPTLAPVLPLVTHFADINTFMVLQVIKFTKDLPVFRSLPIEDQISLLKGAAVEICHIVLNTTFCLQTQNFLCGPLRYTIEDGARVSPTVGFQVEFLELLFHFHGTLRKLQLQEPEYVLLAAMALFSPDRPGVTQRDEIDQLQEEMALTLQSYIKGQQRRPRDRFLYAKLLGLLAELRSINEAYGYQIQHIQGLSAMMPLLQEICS
Source text: The LanthaScreen^TMTR-FRET CAR Coactivator Binding Assay (Cat. No. PV4836, now produced by Thermo) was used with slight modifications of the manufacturer’s protocol. The assay uses two fluorophores: a terbium-labeled anti-GST antibody interacting with glutathione-S-transferase (GST) tagged human CAR ligand-binding domain (LBD) and a fluorescein-labeled PGC1α coactivator peptide (Figure 1). […] Thus, this energy transfer is detected by an increase in the fluorescence emission of the acceptor (fluorescein) and a decrease in the fluorescence emission of the donor (terbium). To quantify the process, TR-FRET is expressed as a ratio of the intensities of the acceptor and donor fluorophores. […] Incubation time was optimized from 1 to 4 h at room temperature and protected from light. […] According to the recommended protocol of the manufacturer, CAR-LBD is added to the solution of test compounds, followed by the addition of a mixture of the fluorescein-coactivator peptide and terbium-labeled anti-GST antibody. In the study we also tested to determine if the order of adding the constituents in the mixture may have an influence on the sensitivity and reproducibility of the assay. […] The terbium was excited using a 340-nm excitation filter with a 30-nm bandwidth and fluorescein was excited with the first emission peak of terbium centered at 495 nm. Energy transfer to fluorescein emission (520 nm) is then measured in the silent region between the first two terbium emission peaks centered at 490 and 545 nm (see Graphical Abstract). […] Delay time was set at 100 μs and integration time 200 μs. Gains set to 100 were the use constant in all the experiments. The 520 nm/495 nm TR-FRET ratio was then calculated. […] The values above the baseline represent activation of CAR LBD-PGC1α interaction and agonistic activity of the tested ligand. The experiments were performed at least three times in quadruplicates. Data are presented as the means and S.D. from three independent experiments (n = 3). […] Dose-response curves were generated by plotting the emission TR-FRET ratio vs. the log of a ligand (in μM). To determine the half maximal inhibitory concentration (IC50) value, the data were fitted using an equation for a sigmoidal dose response inhibition (with a varying slope) using the software GraphPad™ PRISM version 6.05. Z-factors were calculated using the method of Zhang et al..

human CAR LBD = molecular target: T2, human CAR LBD (Homo sapiens, UniProt Q14994); assay: CAR LBD assembly assay (GAL4/VP16 luciferase reporter in HepG2 cells); type: cell-based; conditions: CITCO 1 µM, up to highest studied concentration 30 µM
T2 construct: encoding C (151–349 aa, helices 3–12, pCAR-C/VP16); N (103–150 aa, helix 1, pCAR-N/GAL4) terminal parts of human CAR LBD; expressed in transfected cells; host or cells: HepG2
T2 sequence (Q14994 103-150 isoform Q14994-2): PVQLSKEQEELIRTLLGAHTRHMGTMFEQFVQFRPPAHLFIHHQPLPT
T2 sequence (Q14994 151-348 isoform Q14994-2): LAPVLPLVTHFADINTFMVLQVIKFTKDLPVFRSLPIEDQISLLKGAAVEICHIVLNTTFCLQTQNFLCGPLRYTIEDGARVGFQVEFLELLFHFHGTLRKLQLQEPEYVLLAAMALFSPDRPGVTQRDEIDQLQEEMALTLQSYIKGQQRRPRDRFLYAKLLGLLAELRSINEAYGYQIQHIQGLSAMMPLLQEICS
Experimental: The CAR LBD assembly assay was performed according to the protocol we described in our latest report. The CAR LBD assembly assay is based on two hybrid expression constructs encoding C (151–349 aa, helices 3–12, pCAR-C/VP16) and N (103–150 aa, helix 1, pCAR-N/GAL4) terminal parts of human CAR LBD that are co-transfected together with the pGL5-luc luciferase gene reporter plasmid (Promega) containing GAL4 binding sites. When the CAR LBD interacts with a ligand (both agonist and antagonist), connection of the helix 1 to CAR LBD helices 3–12 promotes firefly luciferase activation. Thus, the assay monitor interaction of CAR LBD with ligands rather than its activation or deactivation.

Structure (SMILES): C[C@]12CC[C@@H](O)C[C@@H]1CC[C@@H]1[C@@H]2CC[C@]2(C)C=CC[C@@H]12 [Androstenol, 5α-androst-16-en-3α-ol]
IC50 ([1]; CITCO 1 μM, antagonist mode, with agonist CITCO 1 μM): 313 µM
IC50 ([1]; No CITCO, inverse agonist mode, reduction of CAR constitutive activity): 0.35 µM
concentration at which consistent antagonistic effect on CITCO was observed ([1]; with CITCO 1 μM): 30 µM
inhibition of CITCO-mediated CAR LBD interaction with PGC1α ([1]; with CITCO 1 μM, serial dilution): did not show any significant inhibition
inhibition of the activity of CITCO (human CAR LBD): weakest inhibition
inhibition of the activity of CITCO (human CAR LBD; listed as androstenol): weaker inhibition

Structure (SMILES): Clc1ccc(-c2nc3sccn3c2C=NOCc2ccc(Cl)c(Cl)c2)cc1 [CITCO, 6-(4-Chlorophenyl)imidazo[2,1-b][1,3]thiazole-5-carbaldehyde O-(3,4-dichlorobenzyl)oxime]
fold activation compared to vehicle control ([1]; modified order: CAR-LBD and fluorescein-/terbium-labeled reagents before the agonist (Figure 2B)): 1.94 fold
fold activation compared to vehicle control ([1]; modified order: ligand, fluorescein-PGC1α and Tb antibody, then CAR-LBD (Figure 2A)): 2.26 fold
fold activation compared to vehicle control ([1]; standard procedure (Figure 2C)): 2.56 fold

effect on interaction of CAR LBD with the PGC1α coactivator ([1]; 10 μM, no CITCO): almost completely inhibited
effect on constitutive activity of CAR ([1]; 30 μM): abolish the constitutive activity of CAR
effect on CITCO-mediated CAR LBD interaction with PGC1α ([1]; 30 μM, with CITCO): completely abrogated the effect of CITCO
effect on constitutive activity of CAR ([1]; concentrations of 20 and 30 μM): abolished constitutive activity of CAR
concentration with significant inhibition of CAR LBD constitutive activity ([1]; no CITCO): 0.01 µM
Structure (SMILES): Clc1ccccc1C(c1ccccc1)(c1ccccc1)n1ccnc1 [Clotrimazole, 1-[(2-Chlorophenyl)diphenylmethyl]-1H-imidazole]
